This is an account of results in patent US10882859B2, “Kinase inhibitors” (Topivert Pharma Limited, priority 2015, dated 2021).

One data set deals with Jurkat cells. As to the kind of experiment: Cell cytotoxicity assay (propidium iodide, flow cytometry). It counts as cell-based, human. The following applies: 24 h. Here is the method:
1×10^5 Jurkat cells (immortalised human T lymphocytes) are added to the appropriate number of wells of a 96 well plate in 100 μL of media (RPMI supplemented with 10% foetal bovine serum). 1 μL of DMSO control (final concentration 1.0% v/v) or test compound (final concentration 20, 5 or 1 μg/mL) is added to the wells and incubated at 37° C., 5% CO2. After 24 hours, the plate is centrifuged at 1200 rpm for 3 minutes and the supernatant discarded. Cells are then resuspended in 150 μL (final concentration 7.5 μg/mL) of propidium iodide (PI) in PBS and incubated at 37° C., 5% CO2 for 15 minutes. After 15 minutes, cells are analysed by flow cytometry (BD accuri) using the FL3 window. The % viability is calculated as the % of cells that are PI negative in the test wells normalised to the DMSO control.

The test system of data set [1] is CD3/IL2 stimulated PBMC cells. Put plainly: IFNγ release from CD3/IL2 stimulated PBMC cells. It counts as cell-based. The following applies: Homo sapiens, CD3/IL2 stimulation, 48 h, ELISA. The protocol:
PBMCs from healthy subjects are separated from whole blood using a density gradient (Lymphoprep, Axis-Shield Healthcare). Cells are added to a 96 well plate, and compound at the desired concentration added 2 hours prior to stimulation with a mixture of monoclonal antibody to CD3 (1 μg/ml, eBioscience) and human recombinant IL2 (10 ng/ml, Peprotech). After 48 hours incubation under normal tissue culture conditions, supernatants are collected and IFNγ release determined by Sandwich ELISA (Duo-set, R&D System). The IC50 is determined from the dose response curve.
A general note: In an ELISA, binding on a coated surface is turned into a signal by an enzyme label.

For a further data set, the target named is JAK2 (Homo sapiens (Human), UniProt O60674). As to the kind of experiment: KINOMEscan enzyme binding assay (DiscoveRx), JAK2. The following applies: read-out: Dissociation Constant JAK2. The protocol:
(§1) These assays may be conducted by DiscoveRx (formerly Ambit; San Diego, Calif.). The percentage inhibition produced by incubation with a test compound may be calculated relative to the non-inhibited control.

Data set [2] is described as follows: Solubility in fasted-state simulated colonic fluid (FaSSCoF). It counts as physicochemical. The following applies: 25 °C, pH 6.5, fassgf or other biorelevant, thermodynamic from solid, pH 6.5, 25° C. Here is the method:
The solubilities of compounds of the invention in FaSSCoF at pH 6.5 are determined using a modification of a previously-reported procedure (Vertzoni, M., et al. Pharm. Res. 2010, 27, 2187-2196). In place of the bile salt extract employed in the original procedure (which extract is no longer available), the modified procedure uses a mixture of sodium taurochlorate (0.15 g), glycocholic acid (0.15 g), ursodeoxycholic acid (0.05 g), cholic acid (0.05 g), and glycodeoxycholic acid (0.05 g). These five bile acids are ground together with a mortar and pestle to produce a fine white powder that is incorporated into the FaSSCoF, as outlined below.
FaSSCoF medium: Tris(hydroxymethyl)aminomethane (Tris; 0.275 g) and maleic acid (0.44 g) are dissolved in water (35 mL) to give a solution whose pH is adjusted to 6.5 by treatment with 0.5M NaOH (ca. 12 mL). The solution is then made up to 50 mL with water. A portion of this Tris/maleate buffer solution (ca. 25 mL) is added to a 0.5 L round-bottomed flask, before being treated with 0.00565 g of the bile acid mixture described above. Solutions of phosphatidylcholine (0.0111 g) in DCM (0.15 mL) and palmitic acid (0.0013 g) in DCM (0.15 mL) are added, then the organic solvent is evaporated off under reduced pressure at 40° C. until a clear solution, with no perceptible DCM odour, is achieved. The volume of the evaporated solution is adjusted to 50 mL by addition of the remainder of Tris/maleate buffer, then BSA (0.115 g) is added, before being dissolved by gentle agitation.
Solubility Determination: Test compounds are suspended in the pH 6.5 FaSSCoF medium to give a maximum final concentration of 2-10 mg/mL. The suspensions are equilibrated at 25° C. for 24 h, before being filtered through a glass fibre C filter. The filtrates are then diluted as appropriate for injection and quantification by HPLC with reference to a standard. Different volumes of the standard, diluted and undiluted sample solutions are injected and the solubilities are calculated using the peak areas determined by integration of the peak found at the same retention time as the principal peak in the standard injection.

For the next data set, the target named is JAK3 (Homo sapiens (Human), UniProt P52333). Put plainly: KINOMEscan enzyme binding assay (DiscoveRx), JAK3. The following applies: read-out: Dissociation Constant JAK3. The protocol: as §1
Chain of JAK3 (P52333 whole entry): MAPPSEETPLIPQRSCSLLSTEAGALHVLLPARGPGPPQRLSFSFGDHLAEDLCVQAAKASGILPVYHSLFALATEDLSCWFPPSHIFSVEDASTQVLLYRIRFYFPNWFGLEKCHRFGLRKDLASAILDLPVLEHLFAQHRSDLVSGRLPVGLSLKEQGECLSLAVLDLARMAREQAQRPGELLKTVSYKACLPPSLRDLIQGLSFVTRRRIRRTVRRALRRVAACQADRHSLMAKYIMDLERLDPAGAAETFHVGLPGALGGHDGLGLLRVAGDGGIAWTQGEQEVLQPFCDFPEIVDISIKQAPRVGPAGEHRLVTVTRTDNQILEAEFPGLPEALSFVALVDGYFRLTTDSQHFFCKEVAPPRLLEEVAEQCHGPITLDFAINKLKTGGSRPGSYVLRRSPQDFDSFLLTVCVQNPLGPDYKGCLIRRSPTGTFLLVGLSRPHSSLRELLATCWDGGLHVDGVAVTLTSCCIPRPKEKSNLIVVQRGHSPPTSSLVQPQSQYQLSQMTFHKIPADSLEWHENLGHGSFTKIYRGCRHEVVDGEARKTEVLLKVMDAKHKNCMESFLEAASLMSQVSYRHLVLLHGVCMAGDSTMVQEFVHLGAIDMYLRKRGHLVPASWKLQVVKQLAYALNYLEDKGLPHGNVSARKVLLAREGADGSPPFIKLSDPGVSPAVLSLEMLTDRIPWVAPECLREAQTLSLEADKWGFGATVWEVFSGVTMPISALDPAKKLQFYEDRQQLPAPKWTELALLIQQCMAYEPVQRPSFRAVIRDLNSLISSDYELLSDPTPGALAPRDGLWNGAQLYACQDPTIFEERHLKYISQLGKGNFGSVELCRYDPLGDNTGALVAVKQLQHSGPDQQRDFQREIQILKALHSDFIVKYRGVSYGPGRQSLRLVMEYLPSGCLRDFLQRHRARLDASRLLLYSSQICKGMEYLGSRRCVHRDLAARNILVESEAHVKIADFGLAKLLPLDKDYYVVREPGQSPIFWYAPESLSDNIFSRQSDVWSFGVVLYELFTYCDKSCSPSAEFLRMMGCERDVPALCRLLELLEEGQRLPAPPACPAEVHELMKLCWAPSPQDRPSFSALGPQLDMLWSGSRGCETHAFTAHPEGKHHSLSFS
The next data set concerns the target TYK2 (Homo sapiens (Human), UniProt P29597). Put plainly: KINOMEscan enzyme binding assay (DiscoveRx), TYK2. The following applies: read-out: Dissociation Constant TYK2. Here is the method:
as §1

For a further data set, the target named is JAK1 (Homo sapiens (Human), UniProt P23458). As to the kind of experiment: KINOMEscan enzyme binding assay (DiscoveRx), JAK1. As to conditions: read-out: Dissociation Constant JAK1. The protocol:
as §1

Converted amounts (≈) assume the structure as drawn. Where two headings read alike, the source gives them in different places.

Chain of TYK2 (P29597 whole entry): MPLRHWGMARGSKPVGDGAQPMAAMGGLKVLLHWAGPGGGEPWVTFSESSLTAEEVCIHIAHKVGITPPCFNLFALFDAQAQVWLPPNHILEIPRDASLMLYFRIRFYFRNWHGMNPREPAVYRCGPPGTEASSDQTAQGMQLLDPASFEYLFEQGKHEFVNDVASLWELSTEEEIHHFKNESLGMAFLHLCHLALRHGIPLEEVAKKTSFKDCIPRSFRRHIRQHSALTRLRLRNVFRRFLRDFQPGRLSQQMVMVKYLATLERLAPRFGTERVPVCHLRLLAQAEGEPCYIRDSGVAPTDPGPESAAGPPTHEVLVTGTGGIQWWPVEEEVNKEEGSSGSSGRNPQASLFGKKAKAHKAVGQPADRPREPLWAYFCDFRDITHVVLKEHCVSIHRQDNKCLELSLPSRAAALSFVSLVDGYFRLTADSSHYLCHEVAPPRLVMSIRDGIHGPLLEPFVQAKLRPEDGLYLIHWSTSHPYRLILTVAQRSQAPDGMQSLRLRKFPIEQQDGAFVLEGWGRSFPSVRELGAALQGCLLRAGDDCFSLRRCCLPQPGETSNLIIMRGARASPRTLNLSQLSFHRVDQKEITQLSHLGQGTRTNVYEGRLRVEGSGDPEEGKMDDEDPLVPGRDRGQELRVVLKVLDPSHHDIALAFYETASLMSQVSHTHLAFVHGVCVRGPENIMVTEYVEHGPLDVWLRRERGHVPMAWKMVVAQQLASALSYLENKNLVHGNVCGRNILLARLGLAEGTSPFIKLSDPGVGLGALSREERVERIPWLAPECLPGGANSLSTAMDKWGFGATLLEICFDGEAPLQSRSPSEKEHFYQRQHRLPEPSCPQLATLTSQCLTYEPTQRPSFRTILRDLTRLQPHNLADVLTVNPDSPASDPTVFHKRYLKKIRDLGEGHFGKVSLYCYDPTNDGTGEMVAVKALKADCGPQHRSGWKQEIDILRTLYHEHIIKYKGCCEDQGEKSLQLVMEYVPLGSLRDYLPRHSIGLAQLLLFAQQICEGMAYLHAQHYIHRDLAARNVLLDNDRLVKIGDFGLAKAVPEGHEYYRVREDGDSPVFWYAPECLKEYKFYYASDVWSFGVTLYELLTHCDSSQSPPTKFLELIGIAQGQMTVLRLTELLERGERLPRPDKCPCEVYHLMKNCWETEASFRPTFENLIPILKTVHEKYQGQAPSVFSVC
Chain of JAK2 (O60674 whole entry): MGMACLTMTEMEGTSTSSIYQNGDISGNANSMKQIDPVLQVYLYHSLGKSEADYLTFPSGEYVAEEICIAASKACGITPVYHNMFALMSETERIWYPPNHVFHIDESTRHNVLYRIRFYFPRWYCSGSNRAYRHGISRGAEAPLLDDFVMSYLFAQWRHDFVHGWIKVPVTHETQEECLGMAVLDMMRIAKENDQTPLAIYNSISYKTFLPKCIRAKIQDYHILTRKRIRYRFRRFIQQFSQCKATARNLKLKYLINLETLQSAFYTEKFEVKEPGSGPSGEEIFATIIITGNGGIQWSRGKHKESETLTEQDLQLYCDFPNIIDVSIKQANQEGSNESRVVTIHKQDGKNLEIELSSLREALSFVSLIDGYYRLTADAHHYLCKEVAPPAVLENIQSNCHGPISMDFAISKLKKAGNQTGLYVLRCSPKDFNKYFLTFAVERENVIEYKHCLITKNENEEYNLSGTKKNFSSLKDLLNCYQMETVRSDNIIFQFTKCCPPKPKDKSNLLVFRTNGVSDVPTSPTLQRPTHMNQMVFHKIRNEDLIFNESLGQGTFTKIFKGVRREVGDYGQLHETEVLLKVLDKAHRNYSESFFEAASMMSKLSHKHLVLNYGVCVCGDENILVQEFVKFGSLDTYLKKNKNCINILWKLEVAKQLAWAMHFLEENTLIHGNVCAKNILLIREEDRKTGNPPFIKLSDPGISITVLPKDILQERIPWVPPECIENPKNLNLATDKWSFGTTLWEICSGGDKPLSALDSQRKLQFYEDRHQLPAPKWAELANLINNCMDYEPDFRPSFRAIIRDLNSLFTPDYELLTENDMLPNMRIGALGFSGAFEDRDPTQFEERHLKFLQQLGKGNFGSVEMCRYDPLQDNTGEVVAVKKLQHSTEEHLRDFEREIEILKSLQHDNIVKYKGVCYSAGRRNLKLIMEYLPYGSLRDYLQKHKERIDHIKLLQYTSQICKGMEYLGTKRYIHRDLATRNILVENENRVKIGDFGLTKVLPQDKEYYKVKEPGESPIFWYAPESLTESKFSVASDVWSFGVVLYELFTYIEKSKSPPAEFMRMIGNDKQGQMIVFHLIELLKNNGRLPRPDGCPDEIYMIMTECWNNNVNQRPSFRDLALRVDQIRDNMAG
Chain of JAK1 (P23458 whole entry): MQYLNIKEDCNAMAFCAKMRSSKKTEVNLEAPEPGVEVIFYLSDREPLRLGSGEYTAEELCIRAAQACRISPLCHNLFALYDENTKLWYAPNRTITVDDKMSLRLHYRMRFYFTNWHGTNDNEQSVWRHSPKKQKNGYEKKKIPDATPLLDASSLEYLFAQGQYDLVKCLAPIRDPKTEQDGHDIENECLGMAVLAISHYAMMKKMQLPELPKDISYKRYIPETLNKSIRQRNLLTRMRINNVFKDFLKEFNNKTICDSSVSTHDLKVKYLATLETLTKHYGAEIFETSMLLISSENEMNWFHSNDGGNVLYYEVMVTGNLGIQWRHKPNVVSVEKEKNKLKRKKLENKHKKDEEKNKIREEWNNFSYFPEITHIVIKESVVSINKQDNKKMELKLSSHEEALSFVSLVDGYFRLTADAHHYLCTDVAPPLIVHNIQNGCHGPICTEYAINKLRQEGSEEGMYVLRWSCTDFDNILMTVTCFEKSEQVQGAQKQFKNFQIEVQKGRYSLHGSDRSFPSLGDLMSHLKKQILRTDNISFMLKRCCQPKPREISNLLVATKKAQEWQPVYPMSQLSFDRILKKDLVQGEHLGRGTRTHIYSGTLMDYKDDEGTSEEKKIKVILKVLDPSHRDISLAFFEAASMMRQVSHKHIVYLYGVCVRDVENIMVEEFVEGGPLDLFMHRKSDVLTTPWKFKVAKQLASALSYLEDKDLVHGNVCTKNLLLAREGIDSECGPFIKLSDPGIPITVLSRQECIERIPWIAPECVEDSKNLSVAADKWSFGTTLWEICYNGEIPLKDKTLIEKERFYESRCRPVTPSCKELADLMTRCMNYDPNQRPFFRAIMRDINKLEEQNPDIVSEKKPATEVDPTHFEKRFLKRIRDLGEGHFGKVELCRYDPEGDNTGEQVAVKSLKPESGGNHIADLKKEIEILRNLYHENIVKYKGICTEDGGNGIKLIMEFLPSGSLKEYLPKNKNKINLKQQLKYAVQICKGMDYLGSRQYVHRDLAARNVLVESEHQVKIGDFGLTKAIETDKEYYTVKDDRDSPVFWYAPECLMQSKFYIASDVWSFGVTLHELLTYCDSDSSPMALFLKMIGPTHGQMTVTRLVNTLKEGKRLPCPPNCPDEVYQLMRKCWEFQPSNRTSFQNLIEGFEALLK

As for `CCc1cc(O)c(F)cc1-c1ccc2c(-c3nc4c([nH]3)CCN(S(=O)(=O)N3CCS(=O)(=O)CC3)C4)n[nH]c2c1` [Example 6(g), 4-((2-(6-(2-ethyl-5-fluoro-4-hydroxyphenyl)-1H-indazol-3-yl)-6,7-dihydro-1H-imidazo[4,5-c]pyridin-5(4H)-yl)sulfonyl)thiomorpholine 1,1-dioxide], the “% viability at 1 μg/mL” value in the data set on Jurkat cells came to 88%. For the same compound, in data set [1], the IC50 (in general, the point on the concentration scale where inhibition reaches its midpoint) is 7.2 nM.
On to `CCc1cc(O)c(F)cc1-c1ccc2c(-c3nc4c([nH]3)CCN(S(=O)(=O)N3CCN(C=O)CC3)C4)n[nH]c2c1` [Example 6(h), 4-((2-(6-(2-ethyl-5-fluoro-4-hydroxyphenyl)-1H-indazol-3-yl)-6,7-dihydro-1H-imidazo[4,5-c]pyridin-5(4H)-yl)sulfonyl)piperazine-1-carbaldehyde], for which the “% viability at 1 μg/mL” value with Jurkat cells is 93%. Also, in data set [1], it took 37.4 nM to reach half-maximal inhibition (IC50).
The matching figures for `CCc1cc(O)c(F)cc1-c1ccc2c(-c3nc4c([nH]3)CCN(C(=O)N(C)c3ccccc3)C4)n[nH]c2c1` [Example 2(e), 2-(6-(2-ethyl-5-fluoro-4-hydroxyphenyl)-1H-indazol-3-yl)-N-methyl-N-phenyl-1,4,6,7-tetrahydro-5H-imidazo[4,5-c]pyridine-5-carboxamide]: 92% and 10.9 nM.
Consider `CCc1cc(O)c(F)cc1-c1ccc2c(-c3nc4c([nH]3)CCN(C(=O)Nc3cn(C)c(=O)n(C)c3=O)C4)n[nH]c2c1` [Example 4(d), N-(1,3-dimethyl-2,4-dioxo-1,2,3,4-tetrahydropyrimidin-5-yl)-2-(6-(2-ethyl-5-fluoro-4-hydroxyphenyl)-1H-indazol-3-yl)-6,7-dihydro-1H-imidazo[4,5-c]pyridine-5(4H)-carboxamide], for which the “% viability at 1 μg/mL” value in the data set with Jurkat cells came to 60%. The compound further had an IC50 in data set [1] of 19.2 nM.
On to `CCc1cc(O)c(F)cc1-c1ccc2c(-c3nc4c([nH]3)CCN(S(=O)(=O)N(C)C3CCOCC3)C4)n[nH]c2c1` [Example 6(c), 2-(6-(2-ethyl-5-fluoro-4-hydroxyphenyl)-1H-indazol-3-yl)-N-methyl-N-(tetrahydro-2H-pyran-4-yl)-6,7-dihydro-1H-imidazo[4,5-c]pyridine-5(4H)-sulfonamide], for which the “% viability at 1 μg/mL” value in the data set with Jurkat cells came to 76%. Also, 9.3 nM corresponded to half-maximal inhibition in data set [1] (IC50).
As for `CCc1cc(O)c(F)cc1-c1ccc2c(-c3nc4c([nH]3)CCN(C(=O)N3CCC(N5CCCCC5)CC3)C4)n[nH]c2c1` [Example 2(a), [1,4′-bipiperidin]-1′-yl(2-(6-(2-ethyl-5-fluoro-4-hydroxyphenyl)-1H-indazol-3-yl)-1,4,6,7-tetrahydro-5H-imidazo[4,5-c]pyridin-5-yl)methanone], the “% viability at 1 μg/mL” value in the data set with Jurkat cells was 59%. Further, the Kd on JAK2 amounted to 0.034 nM; on JAK3, 0.046 nM; at TYK2 it was 0.069 nM; on JAK1 it was 0.6 nM. The solubility thermodynamic at 24 h in data set [2] (Run 1, read-out: pH 6.5 FaSSCoF Solubility, Run 1) is 30 µg/mL (≈ 52.5 µM); in data set [2] (Run 2, read-out: pH 6.5 FaSSCoF Solubility, Run 2) it was 30 µg/mL (≈ 52.5 µM). Also, in data set [1], the midpoint of inhibition, the IC50, lay at 48.4 nM.
As to `CCc1cc(O)c(F)cc1-c1ccc2c(-c3nc4c([nH]3)CCN(S(=O)(=O)N(CCC#N)CCOC)C4)n[nH]c2c1` [Example 6(a), N-(2-cyanoethyl)-2-(6-(2-ethyl-5-fluoro-4-hydroxyphenyl)-1H-indazol-3-yl)-N-(2-methoxyethyl)-6,7-dihydro-1H-imidazo[4,5-c]pyridine-5(4H)-sulfonamide], the “% viability at 1 μg/mL” value with Jurkat cells worked out at 79%. Also, the half-maximal inhibitory concentration (IC50) in data set [1] turned out to be 9.5 nM.
